Paper PMC6117091, “The C. difficile clnRAB operon initiates adaptations to the host environment in response to LL-37” (PLoS Pathogens, 2018)

Tested on: gene expression in C. difficile 630Δerm
Experiment: RNA-seq, genes differentially expressed in LL-37

Structure (SMILES): CC[C@H](C)[C@H](NC(=O)[C@H](CCCCN)NC(=O)[C@H](CCC(=O)O)NC(=O)[C@H](CCCCN)NC(=O)[C@H](CO)NC(=O)[C@H](CCCCN)NC(=O)[C@H](CCCNC(=N)N)NC(=O)[C@H](Cc1ccccc1)NC(=O)[C@H](Cc1ccccc1)NC(=O)[C@H](CC(=O)O)NC(=O)CNC(=O)[C@H](CC(C)C)NC(=O)[C@@H](N)CC(C)C)C(=O)NCC(=O)N[C@@H](CCCCN)C(=O)N[C@@H](CCC(=O)O)C(=O)N[C@@H](Cc1ccccc1)C(=O)N[C@@H](CCCCN)C(=O)N[C@@H](CCCNC(=N)N)C(=O)N[C@H](C(=O)N[C@H](C(=O)N[C@@H](CCC(N)=O)C(=O)N[C@@H](CCCNC(=N)N)C(=O)N[C@H](C(=O)N[C@@H](CCCCN)C(=O)N[C@@H](CC(=O)O)C(=O)N[C@@H](Cc1ccccc1)C(=O)N[C@@H](CC(C)C)C(=O)N[C@@H](CCCNC(=N)N)C(=O)N[C@@H](CC(N)=O)C(=O)N[C@@H](CC(C)C)C(=O)N[C@H](C(=O)N1CCC[C@H]1C(=O)N[C@@H](CCCNC(=N)N)C(=O)N[C@H](C(=O)N[C@@H](CCC(=O)O)C(=O)N[C@@H](CO)C(=O)O)[C@@H](C)O)C(C)C)[C@@H](C)CC)C(C)C)[C@@H](C)CC [LL-37]
- CD630_18890 fold change in LL-37 (2 µg/ml LL-37, BHIS): 4.54
- CD630_18900 fold change in LL-37 (2 µg/ml LL-37, BHIS): 3.60
- CD630_19120 (eutA) fold change in LL-37 (2 µg/ml LL-37, BHIS): 0.20
- CD630_19150 (eutL) fold change in LL-37 (2 µg/ml LL-37, BHIS): 0.21
- CD630_19180 (eutK) fold change in LL-37 (2 µg/ml LL-37, BHIS): 0.40
- CD630_19210 fold change in LL-37 (2 µg/ml LL-37, BHIS): 0.48
- CD630_19220 (eutN) fold change in LL-37 (2 µg/ml LL-37, BHIS): 0.25
- CD630_19440 fold change in LL-37 (2 µg/ml LL-37, BHIS): 2.03
- CD630_19670 fold change in LL-37 (2 µg/ml LL-37, BHIS): 2.01
- CD630_20140 (ilvD) fold change in LL-37 (2 µg/ml LL-37, BHIS): 2.90
- CD630_20160 fold change in LL-37 (2 µg/ml LL-37, BHIS): 0.26
- CD630_20270 fold change in LL-37 (2 µg/ml LL-37, BHIS): 2.69
- CD630_20280 (racX) fold change in LL-37 (2 µg/ml LL-37, BHIS): 2.39
- CD630_20451 fold change in LL-37 (2 µg/ml LL-37, BHIS): 0.46
- CD630_20751 fold change in LL-37 (2 µg/ml LL-37, BHIS): 2.21
- CD630_20910 fold change in LL-37 (2 µg/ml LL-37, BHIS): 2.49
- CD630_21270 fold change in LL-37 (2 µg/ml LL-37, BHIS): 2.34
- CD630_21430 fold change in LL-37 (2 µg/ml LL-37, BHIS): 0.48
- CD630_21510 fold change in LL-37 (2 µg/ml LL-37, BHIS): 0.48
- CD630_21640 (ldh) fold change in LL-37 (2 µg/ml LL-37, BHIS): 2.95
- CD630_21710 fold change in LL-37 (2 µg/ml LL-37, BHIS): 0.34
- CD630_21930 (cwp24) fold change in LL-37 (2 µg/ml LL-37, BHIS): 2.54
- CD630_22010 fold change in LL-37 (2 µg/ml LL-37, BHIS): 0.40
- CD630_22330 (asrA) fold change in LL-37 (2 µg/ml LL-37, BHIS): 2.43
- CD630_23090 fold change in LL-37 (2 µg/ml LL-37, BHIS): 2.29
- CD630_23300 (xpt) fold change in LL-37 (2 µg/ml LL-37, BHIS): 0.49
- CD630_23310 (mtlD) fold change in LL-37 (2 µg/ml LL-37, BHIS): 0.12
- CD630_23320 (mtlF) fold change in LL-37 (2 µg/ml LL-37, BHIS): 0.12
- CD630_23330 (mtlR) fold change in LL-37 (2 µg/ml LL-37, BHIS): 0.14
- CD630_23340 (mtlA) fold change in LL-37 (2 µg/ml LL-37, BHIS): 0.15
- CD630_23380 (4hbD) fold change in LL-37 (2 µg/ml LL-37, BHIS): 12.95
- CD630_23390 (cat2) fold change in LL-37 (2 µg/ml LL-37, BHIS): 13.27
- CD630_23400 fold change in LL-37 (2 µg/ml LL-37, BHIS): 13.14
- CD630_23410 (abfD) fold change in LL-37 (2 µg/ml LL-37, BHIS): 14.81
- CD630_23420 (sucD) fold change in LL-37 (2 µg/ml LL-37, BHIS): 12.71
- CD630_23430 (cat1) fold change in LL-37 (2 µg/ml LL-37, BHIS): 11.85
- CD630_23440 fold change in LL-37 (2 µg/ml LL-37, BHIS): 10.85
- CD630_23700 (nadC) fold change in LL-37 (2 µg/ml LL-37, BHIS): 0.42
- CD630_23710 (nadB) fold change in LL-37 (2 µg/ml LL-37, BHIS): 0.40
- CD630_23720 (nadA) fold change in LL-37 (2 µg/ml LL-37, BHIS): 0.40
- CD630_23790 (buk2) fold change in LL-37 (2 µg/ml LL-37, BHIS): 3.13
- CD630_23800 (iorB) fold change in LL-37 (2 µg/ml LL-37, BHIS): 10.81
- CD630_23810 (iorA) fold change in LL-37 (2 µg/ml LL-37, BHIS): 13.66
- CD630_23820 fold change in LL-37 (2 µg/ml LL-37, BHIS): 13.76
- CD630_24291 fold change in LL-37 (2 µg/ml LL-37, BHIS): 0.23
- CD630_24610 (dnaK) fold change in LL-37 (2 µg/ml LL-37, BHIS): 0.48
- CD630_24620 (grpE) fold change in LL-37 (2 µg/ml LL-37, BHIS): 0.41
- CD630_24630 (hrcA) fold change in LL-37 (2 µg/ml LL-37, BHIS): 0.49
- CD630_25090 fold change in LL-37 (2 µg/ml LL-37, BHIS): 0.40
- CD630_25100 fold change in LL-37 (2 µg/ml LL-37, BHIS): 0.48
- CD630_25110 fold change in LL-37 (2 µg/ml LL-37, BHIS): 0.48
- CD630_25150 fold change in LL-37 (2 µg/ml LL-37, BHIS): 0.38
- CD630_25160 (ansB) fold change in LL-37 (2 µg/ml LL-37, BHIS): 0.44
- CD630_25171 fold change in LL-37 (2 µg/ml LL-37, BHIS): 2.04
- CD630_25560 fold change in LL-37 (2 µg/ml LL-37, BHIS): 4.24
- CD630_26140 fold change in LL-37 (2 µg/ml LL-37, BHIS): 0.12
- CD630_26640 (murE) fold change in LL-37 (2 µg/ml LL-37, BHIS): 0.35
- CD630_26650 fold change in LL-37 (2 µg/ml LL-37, BHIS): 0.43
- CD630_26691 fold change in LL-37 (2 µg/ml LL-37, BHIS): 0.50
- CD630_26700 fold change in LL-37 (2 µg/ml LL-37, BHIS): 0.43
- CD630_26710 fold change in LL-37 (2 µg/ml LL-37, BHIS): 0.38
- CD630_26820 (pfo) fold change in LL-37 (2 µg/ml LL-37, BHIS): 2.03
- CD630_26860 fold change in LL-37 (2 µg/ml LL-37, BHIS): 0.41
- CD630_26870 fold change in LL-37 (2 µg/ml LL-37, BHIS): 0.46
- CD630_27090 fold change in LL-37 (2 µg/ml LL-37, BHIS): 2.37
- CD630_27250 fold change in LL-37 (2 µg/ml LL-37, BHIS): 2.07
- CD630_27491 fold change in LL-37 (2 µg/ml LL-37, BHIS): 0.38
- CD630_27500 (agrB) fold change in LL-37 (2 µg/ml LL-37, BHIS): 0.49
- CD630_27640 fold change in LL-37 (2 µg/ml LL-37, BHIS): 0.38
- CD630_27840 (cwp6) fold change in LL-37 (2 µg/ml LL-37, BHIS): 2.30
- CD630_27880 fold change in LL-37 (2 µg/ml LL-37, BHIS): 0.48
- CD630_28770 (fhuB) fold change in LL-37 (2 µg/ml LL-37, BHIS): 0.35
- CD630_28780 (fhuD) fold change in LL-37 (2 µg/ml LL-37, BHIS): 0.30
- CD630_29320 fold change in LL-37 (2 µg/ml LL-37, BHIS): 0.30
- CD630_29330 fold change in LL-37 (2 µg/ml LL-37, BHIS): 0.50
- CD630_29341 fold change in LL-37 (2 µg/ml LL-37, BHIS): 0.29
- CD630_29360 fold change in LL-37 (2 µg/ml LL-37, BHIS): 0.44
- CD630_29400 fold change in LL-37 (2 µg/ml LL-37, BHIS): 0.42
- CD630_29420 fold change in LL-37 (2 µg/ml LL-37, BHIS): 0.41
- CD630_29430 fold change in LL-37 (2 µg/ml LL-37, BHIS): 0.45
- CD630_29440 fold change in LL-37 (2 µg/ml LL-37, BHIS): 0.44
- CD630_29470 fold change in LL-37 (2 µg/ml LL-37, BHIS): 0.30
- CD630_29490 fold change in LL-37 (2 µg/ml LL-37, BHIS): 0.46
- CD630_29620 fold change in LL-37 (2 µg/ml LL-37, BHIS): 2.13
- CD630_29710 (bioY) fold change in LL-37 (2 µg/ml LL-37, BHIS): 0.45
- CD630_30250 fold change in LL-37 (2 µg/ml LL-37, BHIS): 0.47
- CD630_30260 fold change in LL-37 (2 µg/ml LL-37, BHIS): 0.45
- CD630_30270 fold change in LL-37 (2 µg/ml LL-37, BHIS): 0.25
- CD630_30340 fold change in LL-37 (2 µg/ml LL-37, BHIS): 0.38
- CD630_30360 fold change in LL-37 (2 µg/ml LL-37, BHIS): 0.39
- CD630_30720 fold change in LL-37 (2 µg/ml LL-37, BHIS): 0.41
- CD630_30990 fold change in LL-37 (2 µg/ml LL-37, BHIS): 0.40
- CD630_31000 fold change in LL-37 (2 µg/ml LL-37, BHIS): 0.36
- CD630_31150 (bglA4) fold change in LL-37 (2 µg/ml LL-37, BHIS): 0.37
- CD630_31360 (bglA7) fold change in LL-37 (2 µg/ml LL-37, BHIS): 0.35
- CD630_31370 (bglF5) fold change in LL-37 (2 µg/ml LL-37, BHIS): 0.39
- CD630_31750 (cggR) fold change in LL-37 (2 µg/ml LL-37, BHIS): 0.22
- CD630_32090 fold change in LL-37 (2 µg/ml LL-37, BHIS): 0.47
- CD630_32100 fold change in LL-37 (2 µg/ml LL-37, BHIS): 0.48
- CD630_32220 (sdaB) fold change in LL-37 (2 µg/ml LL-37, BHIS): 0.49
- CD630_32570 fold change in LL-37 (2 µg/ml LL-37, BHIS): 0.37
- CD630_32600 (phoU) fold change in LL-37 (2 µg/ml LL-37, BHIS): 0.49
- CD630_32620 (pstA) fold change in LL-37 (2 µg/ml LL-37, BHIS): 0.48
- CD630_33440 fold change in LL-37 (2 µg/ml LL-37, BHIS): 0.39
- CD630_33730 (mgtA) fold change in LL-37 (2 µg/ml LL-37, BHIS): 3.39
- CD630_33740 fold change in LL-37 (2 µg/ml LL-37, BHIS): 3.92
- CD630_33750 (mgtC) fold change in LL-37 (2 µg/ml LL-37, BHIS): 2.96
- CD630_33790 fold change in LL-37 (2 µg/ml LL-37, BHIS): 2.14
- CD630_33911 fold change in LL-37 (2 µg/ml LL-37, BHIS): 2.66
- CD630_35370 (phnH) fold change in LL-37 (2 µg/ml LL-37, BHIS): 0.39
- CD630_36010 fold change in LL-37 (2 µg/ml LL-37, BHIS): 0.35
- CD630_22290 fold change in LL-37 (2 µg/ml LL-37, BHIS (Table S5)): 0.51
- genes induced (sub-MIC LL-37, at least 2-fold, p < 0.05): 107 genes
- genes differentially expressed at least 2-fold (sub-MIC LL-37, p < 0.05): 228 genes
